Measured values: patent publication US20240158368A1, “Pyrrolidine Main Protease Inhibitors as Antiviral Agents” (AbbVie Inc., priority 2022, published 2024)

Legend:
[1] = in vitro; conditions: human, microsomes, pH 7.4
[2] = system: OC43 virus; assay: microbe, parasite or virus in culture; format: cell-based; conditions: Betacoronavirus 1, OC43, Huh-7, read-out: Antiviral OC43 EC50 (μM)
[3] = target: MERS Mpro (Middle East respiratory syndrome-related coronavirus (isolate United Kingdom/H123990006/2012) (MERS-CoV) (Betacoronavirus England 1), UniProt K9N7C7); assay: biochemical
[4] = target: SARS-CoV-2 Mpro (Severe acute respiratory syndrome coronavirus 2 (2019-nCoV) (SARS-CoV-2), UniProt P0DTD1); format: biochemical
[5] = in vitro; conditions: rat, microsomes, pH 7.4
[6] = target: OC43 Mpro (Human coronavirus OC43 (HCoV-OC43), UniProt P0C6X6); format: biochemical
[7] = in vitro; conditions: PAMPA
[8] = target: SARS-CoV-1 Mpro (Severe acute respiratory syndrome coronavirus (SARS-CoV), UniProt P0C6X7); format: biochemical
[9] = target: 229E Mpro (Human coronavirus 229E (HCoV-229E), UniProt P0C6X1); format: biochemical
[10] = system: SARS-CoV-2 (strain USA-WA1/2020); assay: microbe, parasite or virus in culture; format: cell-based; conditions: Severe acute respiratory syndrome coronavirus 2; HeLa-ACE2 cells; read-out: Antiviral CoV-2 EC50
[11] = system: 229E virus; assay: organism not typed; format: cell-based; conditions: Huh-7, read-out: Antiviral 229E EC50 (μM)

Chain of OC43 Mpro (P0C6X6 3247-3549 limits assumed): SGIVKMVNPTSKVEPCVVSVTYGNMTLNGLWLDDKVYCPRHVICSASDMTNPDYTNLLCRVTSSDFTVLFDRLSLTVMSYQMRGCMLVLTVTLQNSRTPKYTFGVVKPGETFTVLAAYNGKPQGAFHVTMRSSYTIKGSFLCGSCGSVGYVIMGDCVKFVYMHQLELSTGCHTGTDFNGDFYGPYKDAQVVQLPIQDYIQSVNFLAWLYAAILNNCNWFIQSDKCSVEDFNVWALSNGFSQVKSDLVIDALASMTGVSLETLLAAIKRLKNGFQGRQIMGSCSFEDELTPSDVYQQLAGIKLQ
Chain of 229E Mpro (P0C6X1 2966-3267 limits assumed): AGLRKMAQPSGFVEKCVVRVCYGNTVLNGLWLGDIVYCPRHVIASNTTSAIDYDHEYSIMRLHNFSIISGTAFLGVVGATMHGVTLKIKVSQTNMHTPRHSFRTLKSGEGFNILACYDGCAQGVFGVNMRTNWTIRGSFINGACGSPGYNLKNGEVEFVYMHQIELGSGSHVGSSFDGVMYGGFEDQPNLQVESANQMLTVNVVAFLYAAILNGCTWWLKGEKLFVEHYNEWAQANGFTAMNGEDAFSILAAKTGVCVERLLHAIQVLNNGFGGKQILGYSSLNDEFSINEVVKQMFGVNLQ
Chain of MERS Mpro (K9N7C7 3248-3553 limits assumed): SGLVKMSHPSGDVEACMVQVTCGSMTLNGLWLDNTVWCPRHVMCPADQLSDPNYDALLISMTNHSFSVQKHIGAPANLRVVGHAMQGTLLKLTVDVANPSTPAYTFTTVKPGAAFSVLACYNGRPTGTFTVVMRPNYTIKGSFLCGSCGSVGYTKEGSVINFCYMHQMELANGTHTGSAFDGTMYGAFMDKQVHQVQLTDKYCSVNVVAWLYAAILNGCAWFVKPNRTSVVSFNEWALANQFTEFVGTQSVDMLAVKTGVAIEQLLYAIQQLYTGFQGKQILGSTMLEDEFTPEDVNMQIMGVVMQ

Compound	CLint scaled [1] [mL/min/kg]	EC50 [2] [µM]	EC50 [3] [nM]	EC50 [4] [nM]	CLint scaled [5] [mL/min/kg]	EC50 [6] [nM]	Papp [7] [×10⁻⁶ cm/s]	EC50 [8] [nM]	EC50 [9] [nM]	EC50 [10] [nM]	EC50 [11] [µM]
N#Cc1cc(C(=O)N2CCOCC2)c(N2CC[C@@H](NC(=O)c3c(F)c(=O)[nH]c4c(F)cccc34)C2)c(C(F)(F)F)c1 [Compound 5]	< 36.7	0.047	1.26	0.48	< 60	1.25	7.23	1.5	1.44	10.2	0.039
N#Cc1cc(C(=O)N2CCOCC2)c(N2CC[C@@H](NC(=O)c3cc(=O)[nH]c4c(F)c(F)ccc34)C2)c(C(F)(F)F)c1 [Compound 8]	< 35	0.88	1.48	0.43	< 60	4.71	5.11	1.52	3.34	19	0.25
COc1cccc2[nH]c(=O)cc(C(=O)N[C@@H]3CCN(c4c(C(=O)N5CCOCC5)cc(C#N)cc4C(F)(F)F)C3)c12 [Compound 9]	< 35	0.28	1.8	0.47	< 58.3	2.85	0.34	0.79	2.01	319	0.11
CN1CCN(C(=O)c2cc(C#N)cc(C(F)(F)F)c2N2CC[C@@H](NC(=O)c3cc(=O)[nH]c4c(F)cccc34)C2)CC1 [Compound 14]	< 30	0.19	1.33	0.46	56.7	2	2.73	2.73	2.1	12.9	0.15
N#Cc1cc(C(=O)N2CCOCC2)c(N2C[C@H](NC(=O)c3cc(=O)[nH]c4c(F)c(F)ccc34)CC2=O)c(C(F)(F)F)c1 [Compound 34]	< 26.7	7.32	2.28	1.12	< 45	91.8	1.04	2.98	41.7		3.37
O=C(N[C@@H]1CCN(c2c(C(=O)N3CCOCC3)cc(Cl)cc2C(F)(F)F)C1)c1cc(=O)[nH]c2c(F)cccc12 [Compound 36]	95	0.0487	1.02	0.49	403	0.84	14.3	1.43	2.39	9.1	0.0578
O=C(N[C@@H]1CCN(c2c(C(=O)N3CCOCC3)cc(Br)cc2C(F)(F)F)C1)c1c(F)c(=O)[nH]c2c(F)cccc12 [Compound 48]	81.7	0.031	0.9	0.43	210	0.44	17.9	1.15	1.43	5.8	0.044
O=C(N[C@@H]1CCN(c2c(C(=O)N3CCOCC3)cc(Br)cc2C(F)(F)F)C1)c1cc(=O)[nH]c2c(F)cc(F)cc12 [Compound 49]	190	0.168	0.95	0.43	573	1.64	15.6	1.1	4.7	11.3	0.0959
O=C(N[C@@H]1CCN(c2c(C(=O)N3CCOCC3)cc(Br)cc2C(F)(F)F)C1)c1c(F)c(=O)[nH]c2c(F)c(F)ccc12 [Compound 50]	190	0.303	1.9	0.5	165	1.2	16.2	2.23	4.51	11.4	0.319
O=C(N[C@@H]1CCN(c2c(C(=O)N3CCOCC3)cc(Br)cc2C(F)(F)F)C1)c1cc(=O)[nH]c2c(F)c(F)ccc12 [Compound 51]	125	0.0584	0.68	0.42	447	1.1	14.5	1.23	3.56	16	0.0475
O=C(N[C@@H]1CCN(c2c(C(=O)N3CCOCC3)cc(Br)cc2C(F)(F)F)C1)c1cc(=O)[nH]c2ccccc12 [Compound 56]	157	0.014	0.92	0.45	400	0.74	10.9	4.49	1.83	18.1	0.062
O=C(N[C@@H]1CCN(c2c(C(=O)N3CCOCC3)cc(Br)cc2C(F)(F)F)C1)c1cc(=O)[nH]c2c(Cl)cccc12 [Compound 58]	365	0.864	0.91	0.42	1000	5.84	17.9	1.07	24.5		0.983
O=C(N[C@@H]1CCN(c2c(C(=O)N3CCOCC3)cc(Br)cc2C(F)(F)F)C1)c1cc(C(F)F)[nH]c(=O)c1 [Compound 61]	51.7	11.4	3.25	1.93	83.3	52.3	15.7	4.61	367	413	63.1
COc1cccc2[nH]c(=O)cc(C(=O)N[C@@H]3CCN(c4c(C(=O)N5CCOCC5)cc(Cl)nc4C4CC4)C3)c12 [Compound 82]	56.7	0.083	2.91	0.99	51.7	1.61	3.1		13.5	241	1.17
Cc1cc(C(=O)N2CCOCC2)c(N2C[C@H](NC(=O)c3cc(=O)[nH]c4c(F)c(F)ccc34)C[C@H]2C)c(C2CC2)c1 [Compound 83]	1120	0.023	1.39	0.42	1430	0.42	15.7	1.53	1.76		0.029
COc1cccc2[nH]c(=O)cc(C(=O)N[C@H]3CN(c4c(C(=O)N5CCOCC5)cc(C)cc4C4CC4)C[C@@H]3OC)c12 [Compound 84]	120	0.019	2.44	0.6	195	0.64	3.6		2.35	35.1	0.141
